Reference: patent US8962001B2, “Nuclease inhibitors and methods for their use” (Wisconsin Alumni Research Foundation, priority 2004, dated 2015)

Legend:
[1] = target: T1, ribonuclease A (Bos taurus, UniProt P61823); test: Inhibition of RNase A catalysis, fluorescence assay with 6-FAM~dArUdAdA~6-TAMRA; assay type: biochemical; conditions: solutions of low salt concentration
T1 construct: made in house
T1 sequence (P61823 27-150): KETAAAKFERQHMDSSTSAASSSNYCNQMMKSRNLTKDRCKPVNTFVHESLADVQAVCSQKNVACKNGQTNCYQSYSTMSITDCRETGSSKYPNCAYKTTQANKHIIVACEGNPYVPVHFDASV
Protocol: Inhibition of RNase A Catalysis—Inhibition of ribonucleolytic activity was measured by using either poly(C) or a fluorogenic substrate. The total cytidyl concentration of poly(C) was quantitated using ε=6,200 M^−1 cm^−1 at 268 nm (Yakovlev et al., 1992). The cleavage of poly(C) was monitored by the decrease in ultraviolet hypochromicity. The Δε value for this reaction calculated from the difference in molar absorptivity of the polymeric substrate and the mononucleotide cyclic phosphate product was 2,380 M^−1 cm^−1 at 250 nm (delCardayre and Raines, 1994). Assays were performed at 25° C. in 50 mM imidazole-HCl buffer, pH 6.0, containing NaCl (0.10 M), poly(C) (10 μM-1.5 mM), OVS (0-1.43 μM), and enzyme (1.0 nM).
Molar values of OVS were calculated by using the number average molecular mass (Mn) of 2,000 g/mol (value provided by the manufacturer and said to be measured by GPC, Polysciences.) It is possible that an oligomer of this size could bind two enzymes. Thus, the actual Ki values could be 2-fold higher. Kinetic parameters were determined from initial velocity data with the program DELTA-GRAPH 4.0 (DeltaPoint, Monterey, Calif.). For the fluorescence assay, the inhibition of ribonucleolytic activity was assessed at 25° C. in 2.0 ml of 50 mM imidazole-HCl buffer, pH 6.0, containing NaCl (0-0.25 M), 6-FAM˜dArUdAdA˜6-TAMRA (60 nM), and RNase A ([…]) as described previously (Kelemen et al., 1999; Park et al., 2001). Fluorescence (F) was measured using 493 and 515 nm as the excitation and emission wavelengths, respectively. The value of ΔF/Δt was measured for 3 min after the addition of RNase A. An aliquot of inhibitor (I) dissolved in the dissolved in the assay buffer was added next, and ΔF/Δt was measured in the presence of the inhibitor for 3 min. The concentration of inhibitor in the assay was doubled repeatedly in 3-min intervals. Excess RNase A was then added to the mixture to ensure that […] substrate had been cleaved prior to completion of the inhibition assay. Apparent changes in ribonucleolytic activity due to dilution were corrected by comparing values to an assay in which aliquots of buffer were added to the assay. Values of Ki were determined by non-linear least squares regression analysis of data fitted to Equation 1 (Kelemen et al., 1999; Park et al., 2001). ΔF/Δt=(ΔF/Δt)0(Ki/(Ki+[I])) (Eq. 1)
At 0 M NaCl, the enzyme concentration ([E] total) caused a significant depletion in inhibitor concentration, thus the data were fitted to Equation 2, which describes tight-binding inhibition (Henderson, 1972). ΔF/Δt=((ΔF/Δt)0/2[E]total){[(Ki+[I]−[E]total]^2+4Ki[E]total)^1/2−(Ki+[I]−[E]total)} (Eq. 2) In Equations 1 and 2, ( )F/ )t)0 was the ribonucleolytic activity prior to inhibitor addition.

[2] = target: T2, RNase A (Bos taurus, UniProt P61823); conditions: similar buffer conditions with 0.10 M NaCl; cited from earlier work
T2 sequence (P61823 27-150): T1 sequence (P61823 27-150)

SMILES	inhibition of RNase A by buffer synthesis byproducts (words) [1]	inhibition of RNase A by buffer synthesis byproducts (words) ([1]; listed as 2-OH ethanesulfonic acid)	Ki [2] [nM]	inhibition of RNase A by buffer synthesis byproducts (words) ([1]; listed as diethanesulfonic acid)	inhibition of RNase A by buffer synthesis byproducts (words) ([1]; listed as vinyl sulfonic acid)
O=S(=O)(O)CCO [2-hydroxyethanesulfonic acid]	Neither of these species was found to be a potent inhibitor	None of these three materials was found, when tested, to exhibit inhibitory activity			
Nc1ncnc2c1ncn2[C@@H]1O[C@H](COP(=O)(O)OP(=O)(O)O[C@H]2C[C@H](n3ccc(=O)[nH]c3=O)O[C@@H]2COP(=O)(O)O)[C@@H](OP(=O)(O)O)[C@H]1O [pdUppA-3′-p]			~120		
O=S(=O)(O)CCOCCS(=O)(=O)O [Diethanesulfonic acid ether, diethanesulfonic acid ether]	failed to inhibit RNase A			None of these three materials was found, when tested, to exhibit inhibitory activity	
C=CS(=O)(=O)O [vinylsulfonic acid]	Neither of these species was found to be a potent inhibitor				None of these three materials was found, when tested, to exhibit inhibitory activity
